{"source": "paper PMC7044277", "about": "(Nature Communications, 2020)", "type_in_all_cases": "cell-based", "key": {"[1]": {"molecular_target": "T1, 320 non-olfactory GPCRs (Homo sapiens, UniProt P13945)", "T1 construct": "expressed in transfected cells; host or cells: HTLA cells", "T1 sequence (P13945 whole entry)": "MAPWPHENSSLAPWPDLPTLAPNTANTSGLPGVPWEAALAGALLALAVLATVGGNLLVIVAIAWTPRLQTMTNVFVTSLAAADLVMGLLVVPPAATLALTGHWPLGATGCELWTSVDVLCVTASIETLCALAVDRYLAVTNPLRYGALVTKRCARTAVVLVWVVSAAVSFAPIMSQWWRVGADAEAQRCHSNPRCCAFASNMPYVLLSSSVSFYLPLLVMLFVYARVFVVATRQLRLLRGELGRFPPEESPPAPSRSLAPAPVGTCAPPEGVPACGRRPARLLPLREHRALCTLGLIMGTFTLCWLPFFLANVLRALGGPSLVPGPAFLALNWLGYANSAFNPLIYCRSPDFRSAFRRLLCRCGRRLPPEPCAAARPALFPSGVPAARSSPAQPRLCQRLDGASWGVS"}, "[2]": {"molecular_target": "T2, 320 non-olfactory GPCRs (Homo sapiens, UniProt P49286)", "T2 construct": "expressed in transfected cells; host or cells: HTLA cells", "T2 sequence (P49286 whole entry)": "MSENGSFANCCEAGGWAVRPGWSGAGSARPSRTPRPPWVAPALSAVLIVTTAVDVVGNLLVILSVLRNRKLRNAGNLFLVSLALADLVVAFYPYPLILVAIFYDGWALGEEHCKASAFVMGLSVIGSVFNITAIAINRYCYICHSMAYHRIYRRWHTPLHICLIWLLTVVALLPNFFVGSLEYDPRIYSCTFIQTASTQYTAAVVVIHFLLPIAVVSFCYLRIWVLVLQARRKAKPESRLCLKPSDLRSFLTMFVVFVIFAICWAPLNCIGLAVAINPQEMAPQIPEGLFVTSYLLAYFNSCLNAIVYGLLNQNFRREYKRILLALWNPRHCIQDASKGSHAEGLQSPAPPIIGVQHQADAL", "conditions": "receptor MTNR1B; replicate values, Fig_4g"}, "[3]": {"molecular_target": "T3, 320 non-olfactory GPCRs (Homo sapiens, UniProt Q96G91)", "T3 construct": "expressed in transfected cells; host or cells: HTLA cells", "T3 sequence (Q96G91 whole entry)": "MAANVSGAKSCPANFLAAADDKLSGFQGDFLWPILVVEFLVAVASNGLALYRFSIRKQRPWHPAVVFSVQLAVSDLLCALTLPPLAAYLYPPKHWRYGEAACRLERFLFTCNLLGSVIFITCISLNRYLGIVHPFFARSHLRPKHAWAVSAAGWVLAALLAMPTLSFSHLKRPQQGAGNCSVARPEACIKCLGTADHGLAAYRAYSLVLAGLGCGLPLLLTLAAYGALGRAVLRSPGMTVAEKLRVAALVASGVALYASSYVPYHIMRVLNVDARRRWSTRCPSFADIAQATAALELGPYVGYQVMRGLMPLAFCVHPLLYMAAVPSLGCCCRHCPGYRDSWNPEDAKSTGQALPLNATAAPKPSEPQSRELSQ", "conditions": "receptor P2RY11; replicate values, Fig_4g"}, "[4]": {"molecular_target": "T4, 320 non-olfactory GPCRs (Homo sapiens, UniProt Q9GZQ4)", "T4 construct": "expressed in transfected cells; host or cells: HTLA cells", "T4 sequence (Q9GZQ4 whole entry)": "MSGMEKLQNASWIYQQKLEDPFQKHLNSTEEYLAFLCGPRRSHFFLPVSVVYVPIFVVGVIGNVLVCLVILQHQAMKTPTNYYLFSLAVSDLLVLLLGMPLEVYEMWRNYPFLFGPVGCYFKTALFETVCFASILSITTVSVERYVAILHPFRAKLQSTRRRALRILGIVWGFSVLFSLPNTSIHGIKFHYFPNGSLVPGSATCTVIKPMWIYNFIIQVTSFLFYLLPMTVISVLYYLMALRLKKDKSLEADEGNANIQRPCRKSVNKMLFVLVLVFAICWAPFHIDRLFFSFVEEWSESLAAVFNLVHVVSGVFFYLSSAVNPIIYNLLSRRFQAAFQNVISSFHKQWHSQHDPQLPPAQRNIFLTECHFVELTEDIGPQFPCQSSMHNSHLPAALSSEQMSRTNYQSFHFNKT", "conditions": "receptor NMUR2; replicate values, Fig_4g"}}, "note": "Several values for one entry are separate records, joined by “and”; a condition that tells them apart may be missing. Equal entries are not always repeated.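 Throughout, for Fold of Basal: compound tested at 1 µM final concentration.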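 Throughout, for GPCRome agonism screen response: fold over basal response of each receptor without drug.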", "data": [{"smiles": "CCOc1cccc2cc(C(C)NCC3(O)CCCCC3)oc12", "note": "(stereo not shown) [O4LE6]", "values": [{"measurement": "Fold of Basal", "setting": "[1]", "result": "1.471 and 1.539 and 1.208 and 0.8362"}, {"measurement": "GPCRome agonism screen response", "setting": "[2]", "result": "1.769 and 0.5073 and 1.312 and 1.409"}, {"measurement": "GPCRome agonism screen response", "setting": "[3]", "result": "1.047 and 1.146 and 1.063 and 1.471"}, {"measurement": "GPCRome agonism screen response", "setting": "[4]", "result": "1.0233 and 1.105 and 1.159 and 0.9738"}]}]}
